Consider 66 molecules from the Kinase Knowledgebase extract (Sharma et al. 2016).

A word on the IC50: it is the concentration that inhibits the measured activity by half. Lower therefore signals higher potency. For orientation: inhibition means the relative decrease from the control value, in per cent.

Experiment [1] concerns the target MAPK14 (human) (UniProt Q16539). The experiment is described as follows: In vitro Inhibition of TNF-alpha Production in PBMC Cells.
In experiment [2] the test system is MAPK14 (BALB/cJ mice). As to the kind of experiment: In vivo Inhibition of LPS-induced TNF-alpha Production. To be noted: dose or concentration not given here.

Sequence of MAPK14 (human) (Q16539 whole entry, looked up): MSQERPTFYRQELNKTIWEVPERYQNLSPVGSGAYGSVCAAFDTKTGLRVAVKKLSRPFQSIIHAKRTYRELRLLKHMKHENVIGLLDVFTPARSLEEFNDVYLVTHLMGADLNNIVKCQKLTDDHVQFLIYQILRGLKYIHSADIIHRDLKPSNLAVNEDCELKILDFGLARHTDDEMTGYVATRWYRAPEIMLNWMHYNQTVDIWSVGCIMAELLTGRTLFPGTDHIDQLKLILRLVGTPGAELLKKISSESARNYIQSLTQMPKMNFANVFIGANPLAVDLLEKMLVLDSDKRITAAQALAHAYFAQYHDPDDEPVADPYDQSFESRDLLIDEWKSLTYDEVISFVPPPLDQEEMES

Molecule `O=C1CCCn2c(NCCN3CCOCC3)c(-c3ccncc3)c(-c3ccc(F)cc3)c21` showed an IC50 in experiment [1] of 2560 nM. The inhibition in experiment [2] amounted to 51%.
In the same order, the values of `CCN1C(=O)c2c(-c3ccncc3)c(-c3ccc(F)cc3)cn2C1=O` are 401 nM and 72%.
`COC(=O)c1c(-c2ccc(F)cc2)c(-c2ccncc2)c(NCc2ccncc2)n1C` had an IC50 in experiment [1] of 145 nM. For the same molecule, the inhibition in experiment [2] is -22%.
Molecule `CN(C)C(=O)c1c(-c2ccc(F)cc2)c(-c2ccncc2)cn1C` displayed an IC50 in experiment [1] of 1380 nM. Besides, the inhibition in experiment [2] was found to be 33%.
In the same order, the values of `COC(=O)c1c(-c2ccc(F)cc2)c(-c2ccncc2)c(NCCN2CCOCC2)n1C` are 50 nM and 44%.
On the same counts, the results for `COC(=O)c1c(-c2ccc(F)cc2)c(-c2ccncc2)c(N=C(c2ccccc2)c2ccccc2)n1C` are 52 nM and -49%.
In the same order, the values of `COC(=O)CN1CCN(c2c(-c3ccncc3)c(-c3ccc(F)cc3)c(C(=O)OC)n2C)CC1` are 5 nM and 26%.
Molecule `CCOC(=O)c1c(-c2cc(F)cc(F)c2)c(-c2ccncc2)c(N2CCNCC2)n1C` came in with an IC50 in experiment [1] of 93 nM. Further, the inhibition in experiment [2] came to 75%.
On the same counts, the results for `CCOC(=O)c1[nH]cc(-c2ccncc2)c1-c1cc(F)cc(F)c1` are 114 nM and -14%.
As to `COC(=O)c1c(-c2ccc(F)cc2)c(-c2ccncc2)c(N2CCc3ccccc3C2)n1C`, the IC50 in experiment [1] stood at 166 nM. In addition, the inhibition in experiment [2] is 32%.
For the molecule `COC(=O)c1c(-c2ccc(F)cc2)c(-c2ccncc2)c(-c2ccc(N(C)C)cc2)n1C`, the half-inhibitory concentration (IC50) in experiment [1] was determined as 120 nM. Besides, in experiment [2], the inhibition is -22%.
On the same counts, the results for `CN(CCO)Cc1[nH]cc(-c2ccc(F)cc2)c1-c1ccncc1` are 3 nM and -8%.
In the same order, the values of `C[C@H](Nc1nccc(-c2cn(CCN3CCOCC3)cc2-c2ccc(F)cc2)n1)c1ccccc1` are 4 nM and -21%.
On the same counts, the results for `Fc1ccc(-c2c[nH]c(CNCc3ccncc3)c2-c2ccncc2)cc1` are 74 nM and 47%.
In experiment [1], `O=C1c2c(-c3ccncc3)c(-c3ccc(F)cc3)cn2C(=O)N1Cc1ccccc1` displayed an IC50 of 26 nM. For the same molecule, in experiment [2], the inhibition worked out at 51%.
In the same order, the values of `CC(=O)c1c(-c2ccc(F)cc2)c(-c2ccncc2)c(N2CCN(C)CC2)n1C` are 370 nM and 40%.
On the same counts, the results for `CON(C)C(=O)c1c(-c2ccc(F)cc2)c(-c2ccncc2)c(N2CCN(C(=O)OC(C)(C)C)CC2)n1C` are 72 nM and 45%.
On the same counts, the results for `COc1ccc(CNCc2[nH]cc(-c3ccncc3)c2-c2ccc(F)cc2)cc1` are 190 nM and -30%.
As to `COC(=O)c1c(-c2ccc(F)cc2)c(-c2ccncc2)c(N2CCN(CC3CC3)CC2)n1C`, in experiment [1], the IC50 was 269 nM. The inhibition in experiment [2] stood at 66.3%.
Turning to `COC(=O)c1c(-c2ccncc2)c(-c2ccc(F)cc2)c(C#CCCO)n1C`, in experiment [1], the IC50 worked out at 894 nM. Further, the inhibition in experiment [2] was 30%.
The molecule `CCCc1[nH]cc(-c2ccc(F)cc2)c1-c1ccnc(N[C@@H](C)COC)n1` gave an IC50 in experiment [1] of 86 nM. Besides, the inhibition in experiment [2] is -35%.
On the same counts, the results for `CCCc1c(-c2ccnc(N[C@@H](C)COC)n2)c(-c2ccc(F)cc2)cn1CCN1CCOCC1` are 1 nM and -1%.
In experiment [1], `Fc1ccc(-c2cn3c(c2-c2ccncc2)CNCC3)cc1` registered an IC50 of 208 nM. The inhibition in experiment [2] came to 71%.
On to `Cn1c(Br)c(-c2ccncc2)c(-c2ccc(F)cc2)c1C#N`, for which the IC50 in experiment [1] amounted to 625 nM. In addition, the inhibition in experiment [2] amounted to 22%.
In the same order, the values of `COC(=O)c1c(-c2ccc(F)cc2)c(-c2ccncc2)c(N2CCN(c3cccc(C(C)=O)c3)CC2)n1C` are 8 nM and -21%.
In the same order, the values of `Cn1cc(-c2ccncc2)c(-c2ccc(F)cc2)c1CNC(=O)Nc1ccccc1` are 27 nM and 82%.
In the same order, the values of `Fc1ccc(-c2cn3c(c2-c2ccncc2)CN(Cc2ccccc2)CC3)cc1` are 11 nM and -6%.
In turn, `COC(=O)c1c(-c2ccc(F)cc2)c(-c2ccncc2)c(N2CCN(C3CCCC3)CC2)n1C` yielded an IC50 in experiment [1] of 139 nM. The inhibition in experiment [2] worked out at 48.6%.
In the same order, the values of `CNC(=O)c1c(-c2ccc(F)cc2)c(-c2ccncc2)c(Br)n1C` are 543 nM and 53%.
On the same counts, the results for `COC(=O)c1c(-c2ccncc2)c(-c2ccc(F)cc2)c(NCCc2ccccc2)n1C` are 1020 nM and 58%.
In experiment [1], `COC(=O)c1c(-c2ccc(F)cc2)c(-c2ccncc2)c(NCc2cccc(OC)c2)n1C` registered an IC50 of 407 nM. Besides, in experiment [2], the inhibition was determined as 63%.
On the same counts, the results for `CCOC(=O)c1c(-c2cccc(C(F)(F)F)c2)c(-c2ccncc2)c(N2CCNCC2)n1C` are 21 nM and 83%.
In the same order, the values of `CCOC(=O)c1[nH]cc(-c2ccncc2)c1-c1ccc(F)c(F)c1` are 560 nM and -32%.
`COC(=O)c1c(-c2ccc(F)cc2)c(-c2ccncc2)c(N2CCN(C(C)=O)CC2)n1C`: the IC50 in experiment [1] was found to be 1530 nM. The inhibition in experiment [2] is 57%.
On the same counts, the results for `COC(=O)c1c(-c2ccc(F)cc2)c(-c2ccncc2)c(C#CCN2CCN(C)CC2)n1C` are 7.7 nM and 57%.
In the case of `COC(=O)c1c(-c2ccncc2)c(-c2ccc(F)cc2)c(NCCN2CCOCC2)n1C`, the IC50 in experiment [1] turned out to be 10000 nM. In experiment [2], the inhibition was 91%.
In the same order, the values of `CCOC(=O)c1[nH]cc(-c2ccncc2)c1-c1ccccc1` are 149 nM and 58%.
On the same counts, the results for `COC(=O)c1c(-c2ccc(F)cc2)c(-c2ccncc2)c(Nc2cccnc2)n1C` are 57 nM and -10.5%.
On to `CCn1cc(-c2ccncc2)c(-c2ccc(F)cc2)c1C(=O)OC`, for which the IC50 in experiment [1] is 108 nM. Also, the inhibition in experiment [2] worked out at 53%.
On the same counts, the results for `CCN1CCN(c2c(-c3ccncc3)c(-c3ccc(F)cc3)c(C(=O)OC)n2C)CC1` are 135 nM and 67.8%.
In experiment [1], `O=C(NCc1ccccc1)c1[nH]cc(-c2ccc(F)cc2)c1-c1ccncc1` gave an IC50 of 14 nM. The inhibition in experiment [2] was -60%.
In the same order, the values of `CCOC(=O)c1c(-c2ccc(C)cc2)c(-c2ccncc2)c(Br)n1C` are 736 nM and -76%.
On the same counts, the results for `CN(C)CCn1cc(-c2ccncc2)c(-c2ccc(F)cc2)c1CO` are 852 nM and 20%.
Regarding `COC(=O)c1c(-c2ccc(F)cc2)c(-c2ccncc2)c(NCCN2CCCCC2)n1C`, the IC50 in experiment [1] is 92 nM. Moreover, the inhibition in experiment [2] was -36%.
In the same order, the values of `OCc1c(-c2ccc(F)cc2)c(-c2ccncc2)cn1CCN1CCOCC1` are 277 nM and -50%.
On the same counts, the results for `COC(=O)c1c(-c2ccc(F)cc2)c(-c2ccncc2)c(N=CN(C)C)n1C` are 5 nM and 6%.
In the same order, the values of `CCOC(=O)c1c(-c2ccc(C)cc2)c(-c2ccncc2)c(N2CCNCC2)n1C` are 60 nM and 79%.
Take `Cn1cc(-c2ccc(F)cc2)c(-c2ccncc2)c1CO`: the IC50 in experiment [1] was 169 nM. The inhibition in experiment [2] was found to be 65%.
On the same counts, the results for `Cn1c(Br)c(-c2ccncc2)c(-c2ccc(F)cc2)c1C(=O)OC(C)(C)C` are 1890 nM and -7%.
On the same counts, the results for `CN(Cc1ccccc1)Cc1[nH]cc(-c2ccc(F)cc2)c1-c1ccncc1` are 91 nM and 37%.
On the same counts, the results for `COC(=O)C1CCn2c(NCCN3CCOCC3)c(-c3ccncc3)c(-c3ccc(F)cc3)c2C1=O` (configuration not stated) are 77 nM and 71%.
For `COC(=O)c1c(-c2ccc(F)cc2)c(-c2ccncc2)c(NCCN2CCCC2)n1CCN1CCOCC1`, the IC50 in experiment [1] was found to be 969 nM. In addition, the inhibition in experiment [2] came to 23%.
Turning to `COC(=O)c1c(-c2ccc(F)cc2)c(-c2ccncc2)c(NC2CCNCC2)n1C`, in experiment [1], the IC50 was found to be 315 nM. For the same molecule, the inhibition in experiment [2] was found to be 7%.
In the same order, the values of `COC(=O)c1c(-c2ccc(F)cc2)c(-c2ccncc2)cn1C(C)=O` are 194 nM and -32.1%.
In the same order, the values of `CCOC(=O)c1c(-c2ccc(F)cc2)c(-c2ccncc2)c(N2CCNCC2)n1C` are 16 nM and 79%.
On to `CCOC(=O)c1[nH]cc(-c2ccncc2)c1-c1ccc(C)cc1`, for which the IC50 in experiment [1] is 136 nM. In experiment [2], the inhibition is -218%.
In the same order, the values of `COC(=O)c1c(-c2cccc(F)c2)c(-c2ccncc2)c(N2CCNCC2)n1C` are 69 nM and 49%.
On the same counts, the results for `CN(C)C(=O)c1c(-c2ccc(F)cc2)c(-c2ccncc2)c(Br)n1C` are 301 nM and -41%.
On the same counts, the results for `CCC(=O)c1c(-c2ccc(F)cc2)c(-c2ccncc2)c(N2CCNCC2)n1C` are 67 nM and 32%.
Turning to `COC(=O)c1c(-c2ccc(F)cc2)c(-c2ccncc2)c(-c2cccc(NC(C)=O)c2)n1C`, the IC50 in experiment [1] was determined as 2 nM. For the same molecule, the inhibition in experiment [2] is 59%.
In the case of `COC(=O)c1c(-c2ccc(F)cc2)c(-c2ccncc2)c(N2CCN(S(C)(=O)=O)CC2)n1C`, the IC50 in experiment [1] amounted to 5860 nM. The inhibition in experiment [2] is -29%.
In the same order, the values of `Cn1c(C(=O)OC(C)(C)C)c(-c2ccc(F)cc2)c(-c2ccncc2)c1N1CCNCC1` are 420 nM and 25%.
In the same order, the values of `CCOC(=O)c1c(-c2ccc(F)cc2)c(-c2ccncc2)c(CCCN2CCOCC2)n1C` are 756 nM and 34%.
In the same order, the values of `CCOC(=O)c1c(-c2ccc(F)cc2)c(-c2ccncc2)c(CCCOCc2ccccc2)n1C` are 248 nM and 51%.
Regarding `C=CC#Cc1c(-c2ccc(F)cc2)c(-c2ccncc2)c(C(=O)OC)n1C`, the IC50 in experiment [1] is 34 nM. In addition, in experiment [2], the inhibition is -20%.
In the same order, the values of `Fc1ccc(-c2c[nH]c(CN3CCNCC3)c2-c2ccncc2)cc1` are 63 nM and -41%.
